Measured values as given in ChEMBL document CHEMBL1139750, “Arylsulfonamides: a study of the relationship between activity and conformational preferences for a series of factor Xa inhibitors” (Bioorg Med Chem Lett, 2006).

target: Coagulation factor X (Homo sapiens, UniProt P00742); assay: Binding affinity at factor 10a
Sequence (P00742 41-179 limits assumed): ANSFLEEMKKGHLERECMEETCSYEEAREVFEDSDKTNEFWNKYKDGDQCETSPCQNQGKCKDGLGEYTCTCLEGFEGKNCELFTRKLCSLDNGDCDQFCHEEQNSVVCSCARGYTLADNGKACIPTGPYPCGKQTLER
Sequence (P00742 235-488 limits assumed): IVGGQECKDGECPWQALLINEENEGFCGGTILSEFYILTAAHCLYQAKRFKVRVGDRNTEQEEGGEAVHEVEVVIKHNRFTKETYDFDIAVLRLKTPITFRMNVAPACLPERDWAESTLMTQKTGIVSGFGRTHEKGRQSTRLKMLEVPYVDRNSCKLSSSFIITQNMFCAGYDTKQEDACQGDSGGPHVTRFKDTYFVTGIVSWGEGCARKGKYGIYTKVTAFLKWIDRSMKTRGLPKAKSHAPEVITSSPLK

| SMILES | Ki [nM] |
| --- | --- |
| C[C@@H](C(=O)N1CCOCC1)N1CC[C@H](NS(=O)(=O)c2cc3ccc(Cl)cc3o2)C1=O | 285 |
| C[C@@H](C(=O)N1CCOCC1)N1CC[C@H](NS(=O)(=O)c2cc3cc(Cl)ccc3[nH]2)C1=O | 90 |
| C[C@@H](C(=O)N1CCOCC1)N1CC[C@H](NS(=O)(=O)c2nc3ccc(Cl)cc3s2)C1=O | 4160 |
| C[C@@H](C(=O)N1CCOCC1)N1CC[C@H](NS(=O)(=O)c2nc3cc(Cl)ccc3s2)C1=O | 112 |
| C[C@@H](C(=O)N1CCOCC1)N1CC[C@H](NS(=O)(=O)c2cc3ccc(Cl)cc3s2)C1=O | 15 |
| C[C@@H](C(=O)N1CCOCC1)N1CC[C@H](NS(=O)(=O)c2cc3ccc(Cl)cc3[nH]2)C1=O | 170 |
| C[C@@H](C(=O)N1CCOCC1)N1CC[C@H](NS(=O)(=O)c2cc3cc(Cl)ccc3s2)C1=O | 47 |
| C[C@@H](C(=O)N1CCOCC1)N1CC[C@H](NS(=O)(=O)c2cc3cc(Cl)ccc3o2)C1=O | 782 |
